The subject of this test is HSV-1. Description: Virus plaque assay in HSV-1-infected Vero cells. The following applies: Human alphaherpesvirus 1, read-out: IC50, HSV-1 replication, plaque assay. Format: cell-based, HSV-1 KOS strain. The procedure: Virus titer determination was carried out in 25-cm^2 flasks or 6-well plates with confluent Vero cells. The virus stock was serially diluted in Medium 199. 1 mL of each of the dilutions was added to the Vero cells in duplicates and incubated for 2h. Then the inoculum was aspirated and DMEM supplemented with 5% NBCS and 7.5 μg/mL human immunoglobulin (Sigma) was added. After two days the cells were washed twice with PBS and fixed with MeOH for 5 min at RT. Then 1:10 diluted KaryoMax Giemsa stain solution (Gibco) was added to the cells and incubated for 20 min at RT. Following washing with water the plaques were counted under the microscope and the titer was calculated. 4x10^5 Vero cells, 8x10^5 SH-SY5Y or 2x10^6 differentiated LUHMES (differentiation day 6) cells were seeded into 12-well plates. After 24h the cells were treated with compounds (as indicated in the figures) and after 1h they were infected with HSV-1 applying MOIs as described in the figures. After 20h (or at indicated time points) cells were either washed twice with PBS, then lysed in cold PBS/1% NP40 including the cOmplete EDTA-free protease inhibitor cocktail (Roche) and phosphatase inhibitor cocktail (Sigma) or virus was released by freeze-thawing and ultrasonic treatment for analysis in viral plaque assay (see above).

Consider one compound from PMC12866179, “Oxidized MIF is an Alzheimer’s disease drug target relaying external risk factors to tau pathology” (Cell Reports Medicine, 2025).

Take `CCc1cc(N2CCCC2)cc2[s+]c3cc(N4CCCC4)cc(C)c3nc12.[I-]` [PAV-174, 3,7-Di(pyrrolidine-1-yl) 1-ethyl-9-methyl-phenothiazin-5-ium iodide]: the 50% inhibitory concentration (IC50) (in general, the concentration that inhibits the measured activity by half) came out at 34 nM.
